In US20250204520A1, “USE OF SODIUM SELENITE IN PREVENTION AND/OR A[…] TEA TREE SUNBURN” (ANHUI AGRICULTURAL UNIVERSITY, priority 2023, published 2025):

Legend:
Format in all cases: in vivo, 'Huangjinye' tea tree variety
tea tree sunburn [1] = assay: Anti-sunburn test of different concentrations of selenium: disease index, incidence and control effect after simulated sunburn; conditions: for Incidence: foliar spray 4 days, simulated sunburn 4 h; for Disease index: foliar spray once a day for 4 days, simulated sunburn 34° C., 1600 μmol·m^−2·s^−1, 4 h; for Efficacy (control effect): calculated from disease index vs control group
Experimental: A method for preventing and/or alleviating tea tree sunburn included: • Experimental base: artificial climate chamber of Anhui Agricultural University; • Experimental subjects: ‘Huangjinye’ tea tree variety; • Experimental procedure:
2. Preparation of Na2SeO3 treatment solutions with different concentrations: 1.0, 2.0, 3.0, and 4.0 mg sodium selenite crystal powders were dissolved in 1 L of pure water (with final concentrations of 1.0, 2.0, 3.0, and 4.0 mg/L, respectively).
3. Seedling cultivation: the purchased tea seedlings were planted in a flower pot with a diameter of 20 cm, where nutrient soil, vermiculite, and perlite were at a volume ratio of 2:1:1; growth environment: temperature 28° C., humidity 80%, and light intensity 500 μmol·m^−2·s^−1.
(§1) 4. Anti-sunburn test of different concentrations of selenium: tea seedlings with roughly the same growth rate were sprayed with 0, 1.0, 2.0, 3.0, and 4.0 mg/L sodium selenite solution on the surface of their leaves at a distance of 3 cm to 5 cm from the leaves until liquid droplets were falling from the leaves, spray once a day for continuous 4 days; while a control group was sprayed with the same amount of water.
(§2) After an interval of 2 d after the end of the external treatment, the tea seedlings were placed in an artificial climate chamber (temperature: 34° C., humidity: 60%, light intensity: 1600 μmol·m^−2·s^−1) to allow simulated sunburn treatment for 4 h, and then observed, photographed, and statistics were made.
The number of leaves at each disease level was counted according to the degree of disease susceptibility, and the average incidence rate and disease index were calculated according to the formula to determine the severity of tea leaf diseases. Incidence rate=number of diseased leaves/total number of investigated leaves×100%, disease index=[Σ(number of leaves at each disease level×representative value of disease level)/(total number of investigated leaves×representative value of highest level)]×100; control effect (%)=[(control group condition index-treatment group condition index)/control group condition index]×100%.

tea tree sunburn [2] = assay: Fv/Fm value of tea trees treated with exogenous selenium under sunburn; conditions: under sunburn conditions (water treatment group: 42.09%)
Experimental: as §1, §2
Influences of different concentrations of selenium on the apparent morphology of tea trees under sunburn: compared with the selenium treatment group, the water treatment group had the largest number of burned leaves and the largest lesion area. […] The decrease in Fv/Fm value of tea trees in the 4 selenium treatment groups was smaller than that in the water treatment group, where the Fv/Fm value of the treatment with a selenium concentration of 3.0 mg/L had the minimum decrease. Moreover, external spraying of sodium selenite could indeed alleviate the tea tree sunburn, and 3.0 mg/L Na2SeO3 solution had the best effect.

tea tree = assay: Malondialdehyde (MDA) content of tea tree leaves after spraying sodium selenite, with and without simulated sunburn; conditions: 3 mg/L Na2SeO3 sprayed
Experimental: A method for preventing and/or alleviating tea tree sunburn included: • Experimental base: artificial climate chamber of Anhui Agricultural University; • Experimental subjects: ‘Huangjinye’ tea tree variety;
2. Preparation of Na2SeO3 treatment solution: 3.0 mg sodium selenite crystal powder was dissolved in 1 L of pure water (concentration: 3.0 mg/L).
3. Seedling growth environment: the purchased tea seedlings were planted in a flower pot with a diameter of 20 cm (nutrient soil, vermiculite, and perlite) were at a volume ratio of 2:1:1, and then placed in a glass greenhouse.
Normal growth environment: temperature 28° C., humidity 80%, and light intensity500 μmol·m^−2·s^−1.
Sunburn-simulated environment: temperature 34° C., humidity 60%, and light intensity 1,600 μmol·m^−2·s^−1.
4. […]
After sunburn treatment for 4 h, 0.5 g samples of the 3rd and 4th leaves of mature tea tree leaves were added in a mortar separately, added with 5 mL of 5% (v/v) trichloroacetic acid and ground. […] After rapid cooling and centrifugation at 4,000 r/min for 10 min, a supernatant was detected using a UV spectrophotometer at […], 600 nm, and 450 nm separately, and the data were recorded and analyzed. […]

[3] = selenium concentration 1.0 mg/L
[4] = selenium concentration 2.0 mg/L
[5] = selenium concentration 3.0 mg/L
[6] = selenium concentration 4.0 mg/L

O=[Se]([O-])[O-].[Na+].[Na+] [selenium, sodium selenite]
Number of sunburned leaves and area of diseased spots (apparent morphology) (tea tree sunburn [1]; concentration of 3.0 mg/L, among the four spraying concentrations, under sunburn): least amount and the smallest lesion area | Reduction of incidence of sunburn compared with the group without selenium treatment (tea tree sunburn [1]; [3]): 33.83% | Incidence (tea tree sunburn [1]; [3]): 12.11 ± 3.38b % | Disease index (tea tree sunburn [1]; [3]): 1.13 ± 0.26bc | Efficacy (control effect) (tea tree sunburn [1]; [3]): 42.61% | Reduction of incidence of sunburn compared with the group without selenium treatment (tea tree sunburn [1]; [4]): 29.62% | Incidence (tea tree sunburn [1]; [4]): 12.88 ± 0.66ab % | Disease index (tea tree sunburn [1]; [4]): 1.13 ± 0.35bc | Efficacy (control effect) (tea tree sunburn [1]; [4]): 42.61% | Reduction of incidence of sunburn compared with the group without selenium treatment (tea tree sunburn [1]; [5]): 78.14% | Incidence (tea tree sunburn [1]; [5]): 4.00 ± 0.00d % | Disease index (tea tree sunburn [1]; [5]): 0.22 ± 0.08 days | Efficacy (control effect) (tea tree sunburn [1]; [5]): 89.38% | Reduction of incidence of sunburn compared with the group without selenium treatment (tea tree sunburn [1]; [6]): 9.84% | Incidence (tea tree sunburn [1]; [6]): 16.50 ± 3.80a % | Disease index (tea tree sunburn [1]; [6]): 1.62 ± 0.23ab | Efficacy (control effect) (tea tree sunburn [1]; [6]): 17.58% | Decrease of Fv/Fm value compared with the control CK (tea tree sunburn [2]; [3]): 30.29% | Decrease of Fv/Fm value compared with the control CK (tea tree sunburn [2]; [4]): 23.72% | Decrease of Fv/Fm value compared with the control CK (tea tree sunburn [2]; [5]): 17.86% | Decrease of Fv/Fm value compared with the control CK (tea tree sunburn [2]; [6]): 34.32% | Reduction of MDA content compared with the control (tea tree; non-sunburn growth conditions (Se vs CK)): 22.14% | Decrease of MDA content compared with the water treatment group under sunburn (tea tree; simulated sunburn 4 h (SeH vs CKH)): 19.89%
